Source: patent EP1007530B1, “6-O-SUBSTITUTED ERYTHROMYCIN COMPOUNDS AND METHOD FOR MAKING SAME” (ABBOTT LABORATORIES, priority 1996, dated 1997)

Tests used:
Assay in all cases: In vitro assay of antibacterial activity (agar dilution MIC)
Type in all cases: cell-based
[1] = test system: Actinetobacter calcoaceticus CMX 669; settings: BHI agar, 35-37 °C, 20 to 24 hours, unit assumed
Procedure: (§1) Representative compounds of the present invention were assayed in vitro for antibacterial activity as follows: Twelve petri dishes containing successive aqueous dilutions of the test compound mixed with 10 mL of sterilized Brain Heart Infusion (BHI) agar (Difco 0418-01-5) were prepared. Each plate was inoculated with 1:100 (or 1:10 for slow-growing strains, such as Micrococcus and Streptococcus) dilutions of up to 32 different microorganisms, using a Steers replicator block. The inoculated plates were incubated at 35-37 °C for 20 to 24 hours, In addition, a control plate, using BHI agar containing no test compound, was prepared and incubated at the beginning and end of each test.
(§2) An additional plate containing a compound having known susceptibility patterns for the organisms being tested and belonging to the same antibiotic class as the test compound was also prepared and incubated as a further control, as well as to provide test-to-test comparability.
(§3) After incubation, each plate was visually inspected. The minimum inhibitory concentration (MIC) was defined as the lowest concentration of drug yielding no growth, a slight haze, or sparsely isolated colonies on the inoculum spot as compared to the growth control. […]

[2] = test system: Staphylococcus aureus 1775; settings: BHI agar, 35-37 °C, 20 to 24 hours, unit assumed
Procedure: as §1
as §2, with “comparability. Erythromycin A was used for this purpose.” for “comparability.”
as §3

[3] = test system: Escherichia coli H560; settings: BHI agar, 35-37 °C, 20 to 24 hours, unit assumed
Procedure: as §1
as §2, with “comparability. Erythromycin A was used for this purpose.” for “comparability.”
as §3

[4] = test system: Streptococcus bovis A-5169; settings: BHI agar, 35-37 °C, 20 to 24 hours, unit assumed
Procedure: as §1
as §2, with “comparability. Erythromycin A was used for this purpose.” for “comparability.”
as §3

[5] = test system: Candida albicans CCH 442; settings: BHI agar, 35-37 °C, 20 to 24 hours, unit assumed
Procedure: as §1
as §2, with “comparability. Erythromycin A was used for this purpose.” for “comparability.”
as §3

[6] = test system: Staphylococcus aureus CMX 553; settings: BHI agar, 35-37 °C, 20 to 24 hours, unit assumed
Procedure: as §1
as §2, with “comparability. Erythromycin A was used for this purpose.” for “comparability.”
as §3

[7] = test system: Staphylococcus aureus ATCC 6538P; settings: BHI agar, 35-37 °C, 20 to 24 hours, unit assumed
Procedure: as §1
as §2, with “comparability. Erythromycin A was used for this purpose.” for “comparability.”
as §3

[8] = test system: Pseudomonas aeruginosa K799/61; settings: BHI agar, 35-37 °C, 20 to 24 hours, unit assumed
Procedure: as §1
as §2, with “comparability. Erythromycin A was used for this purpose.” for “comparability.”
as §3

[9] = test system: Staphylococcus aureus A-5278; settings: BHI agar, 35-37 °C, 20 to 24 hours, unit assumed
Procedure: as §1
as §2, with “comparability. Erythromycin A was used for this purpose.” for “comparability.”
as §3

[10] = test system: Escherichia coli JUHL; settings: BHI agar, 35-37 °C, 20 to 24 hours, in µg/mL (unit assumed)
Procedure: as §1
as §2, with “comparability. Erythromycin A was used for this purpose.” for “comparability.”
as §3

[11] = test system: Streptococcus pyogenes 930; settings: BHI agar, 35-37 °C, 20 to 24 hours, unit assumed
Procedure: as §1
as §2, with “comparability. Erythromycin A was used for this purpose.” for “comparability.”
as §3

[12] = test system: Staphylococcus aureus NCTC10649M; settings: BHI agar, 35-37 °C, 20 to 24 hours, unit assumed
Procedure: as §1
as §2, with “comparability. Erythromycin A was used for this purpose.” for “comparability.”
as §3

[13] = test system: Pseudomonas aeruginosa DPHD-5263; settings: BHI agar, 35-37 °C, 20 to 24 hours, in µg/mL (unit assumed)
Procedure: as §1
as §2, with “comparability. Erythromycin A was used for this purpose.” for “comparability.”
as §3

[14] = test system: Micrococcus luteus ATCC 9341; settings: BHI agar, 35-37 °C, 20 to 24 hours, unit assumed
Procedure: as §1
as §2, with “comparability. Erythromycin A was used for this purpose.” for “comparability.”
as §3

[15] = test system: Staphylococcus aureus CMX 642A; settings: BHI agar, 35-37 °C, 20 to 24 hours, unit assumed
Procedure: as §1
as §2, with “comparability. Erythromycin A was used for this purpose.” for “comparability.”
as §3

[16] = test system: Enterococcus faecium ATCC 8043; settings: BHI agar, 35-37 °C, 20 to 24 hours, unit assumed
Procedure: as §1
as §2, with “comparability. Erythromycin A was used for this purpose.” for “comparability.”
as §3

[17] = test system: Micrococcus luteus ATCC 4698; settings: BHI agar, 35-37 °C, 20 to 24 hours, unit assumed
Procedure: as §1
as §2, with “comparability. Erythromycin A was used for this purpose.” for “comparability.”
as §3

[18] = test system: Mycobacterium smegmatis ATCC 114; settings: BHI agar, 35-37 °C, 20 to 24 hours, unit assumed
Procedure: as §1
as §2, with “comparability. Erythromycin A was used for this purpose.” for “comparability.”
as §3

[19] = test system: Streptococcus agalactiae CMX 508; settings: BHI agar, 35-37 °C, 20 to 24 hours, unit assumed
Procedure: as §1
as §2, with “comparability. Erythromycin A was used for this purpose.” for “comparability.”
as §3

[20] = test system: Escherichia coli SS; settings: BHI agar, 35-37 °C, 20 to 24 hours, unit assumed
Procedure: as §1
as §2, with “comparability. Erythromycin A was used for this purpose.” for “comparability.”
as §3

[21] = test system: Escherichia coli DC-2; settings: BHI agar, 35-37 °C, 20 to 24 hours, unit assumed
Procedure: as §1
as §2, with “comparability. Erythromycin A was used for this purpose.” for “comparability.”
as §3

[22] = test system: Escherichia coli KNK 437; settings: BHI agar, 35-37 °C, 20 to 24 hours, unit assumed
Procedure: as §1
as §2, with “comparability. Erythromycin A was used for this purpose.” for “comparability.”
as §3

[23] = test system: Streptococcus pyogenes PIU 2548; settings: BHI agar, 35-37 °C, 20 to 24 hours, unit assumed
Procedure: as §1
as §2, with “comparability. Erythromycin A was used for this purpose.” for “comparability.”
as §3

[24] = test system: Pseudomonas capacia 2961; settings: BHI agar, 35-37 °C, 20 to 24 hours, in µg/mL (unit assumed)
Procedure: as §1
as §2, with “comparability. Erythromycin A was used for this purpose.” for “comparability.”
as §3

[25] = test system: Staphylococcus epidermidis 3519; settings: BHI agar, 35-37 °C, 20 to 24 hours, unit assumed
Procedure: as §1
as §2, with “comparability. Erythromycin A was used for this purpose.” for “comparability.”
as §3

[26] = test system: Pseudomonas aeruginosa 5007; settings: BHI agar, 35-37 °C, 20 to 24 hours, unit assumed
Procedure: as §1
as §2, with “comparability. Erythromycin A was used for this purpose.” for “comparability.”
as §3

[27] = test system: Enterobacter aerogenes ATCC 13048; settings: BHI agar, 35-37 °C, 20 to 24 hours, unit assumed
Procedure: as §1
as §2, with “comparability. Erythromycin A was used for this purpose.” for “comparability.”
as §3

[28] = test system: Pseudomonas aeruginosa DPHD-2862; settings: BHI agar, 35-37 °C, 20 to 24 hours, unit assumed
Procedure: as §1
as §2, with “comparability. Erythromycin A was used for this purpose.” for “comparability.”
as §3

[29] = test system: Pseudomonas aeruginosa K799/WT; settings: BHI agar, 35-37 °C, 20 to 24 hours, unit assumed
Procedure: as §1
as §2, with “comparability. Erythromycin A was used for this purpose.” for “comparability.”
as §3

[30] = test system: Pseudomonas aeruginosa BMH10; settings: BHI agar, 35-37 °C, 20 to 24 hours, in µg/mL (unit assumed)
Procedure: as §1
as §2, with “comparability. Erythromycin A was used for this purpose.” for “comparability.”
as §3

[31] = test system: Providencia struartii CMX 640; settings: BHI agar, 35-37 °C, 20 to 24 hours, unit assumed
Procedure: as §1
as §2, with “comparability. Erythromycin A was used for this purpose.” for “comparability.”
as §3

[32] = test system: Streptococcus pyogenes EES61; settings: BHI agar, 35-37 °C, 20 to 24 hours, unit assumed
Procedure: as §1
as §2, with “comparability. Erythromycin A was used for this purpose.” for “comparability.”
as §3

[33] = test system: Klebsiella pneumoniae ATCC 8045; settings: BHI agar, 35-37 °C, 20 to 24 hours, unit assumed
Procedure: as §1
as §2, with “comparability. Erythromycin A was used for this purpose.” for “comparability.”
as §3

Compound	MIC [1]	MIC [2]	MIC [3]	MIC [4]	MIC [5]	MIC [6]	MIC [7]	MIC [8]	MIC [9]	MIC [10]	MIC [11]	MIC [12]	MIC [13]	MIC [14]	MIC [15]	MIC [16]	MIC [17]	MIC [19]	MIC [20]	MIC [21]	further results
CC[C@H]1OC(=O)[C@H](C)[C@@H](O[C@H]2C[C@@](C)(OC)[C@@H](O)[C@H](C)O2)[C@H](C)[C@@H](O[C@@H]2O[C@H](C)C[C@H](N(C)C)[C@H]2O)[C@](C)(OCC=NO)C[C@@H](C)C(=O)[C@H](C)[C@@H](O)[C@]1(C)O [Example 12, Compound of Formula (X): X is =O, R is -CH2-CH=N-OH]	12.5 µg/mL	> 100 µg/mL	25 µg/mL	0.05 µg/mL	> 100 µg/mL	0.39 µg/mL	0.39 µg/mL	1.56 µg/mL	> 100 µg/mL	50	> 100 µg/mL	0.39 µg/mL	> 100	0.05 µg/mL	0.39 µg/mL	0.1 µg/mL	0.78 µg/mL	0.05 µg/mL	0.78 µg/mL	> 100 µg/mL	MIC [18]: 0.78 µg/mL; MIC [22]: 100 µg/mL; MIC [23]: 12.5 µg/mL; MIC [24]: > 100; MIC [25]: 0.39 µg/mL; MIC [26]: > 100 µg/mL; MIC [27]: > 100 µg/mL; MIC [28]: > 100 µg/mL; MIC [29]: > 100 µg/mL; MIC [30]: > 100; MIC [31]: > 100 µg/mL; MIC [32]: 0.05 µg/mL
Compound of Formula (X): X is =N-OH, R is allyl [Example 1C]	50 µg/mL	> 100 µg/mL	100 µg/mL	0.01 µg/mL	> 100 µg/mL	0.78 µg/mL	0.78 µg/mL	6.2 µg/mL	> 100 µg/mL	100	> 100 µg/mL	0.78 µg/mL	> 100	0.1 µg/mL	1.56 µg/mL	0.2 µg/mL	1.56 µg/mL	0.01 µg/mL	0.78 µg/mL	> 100 µg/mL	MIC [18]: 0.2 µg/mL; MIC [22]: > 100 µg/mL; MIC [23]: 3.1 µg/mL; MIC [24]: > 100; MIC [25]: 0.39 µg/mL; MIC [26]: > 100 µg/mL; MIC [27]: > 100 µg/mL; MIC [28]: > 100 µg/mL; MIC [29]: > 100 µg/mL; MIC [30]: > 100; MIC [31]: > 100 µg/mL; MIC [33]: > 100 µg/mL
Compound of Formula (XII): X is-=N-O-(1-isopropoxycyclohexyl), R is allyl, R^p is trimethylsilyl [Example 1B]	50 µg/mL	> 100 µg/mL	100 µg/mL	0.02 µg/mL	> 100 µg/mL	1.56 µg/mL	0.78 µg/mL	6.2 µg/mL	> 100 µg/mL	> 100	> 100 µg/mL	3.1 µg/mL	> 100	0.2 µg/mL	1.56 µg/mL	0.2 µg/mL	3.1 µg/mL	0.1 µg/mL	3.1 µg/mL	> 100 µg/mL	MIC [22]: > 100 µg/mL; MIC [23]: 6.2 µg/mL; MIC [24]: > 100; MIC [25]: 0.39 µg/mL; MIC [26]: > 100 µg/mL; MIC [27]: > 100 µg/mL; MIC [28]: > 100 µg/mL; MIC [29]: > 100 µg/mL; MIC [30]: > 100; MIC [31]: > 100 µg/mL; MIC [33]: > 100 µg/mL
